Laboratory results reported in patent US9096581B2, “Fluoroethyl thiamine or salts thereof and application thereof in preparation of anticoccidial drugs” (GUANGZHOU ORIGMOL FEED-ADDITIVE CO., LTD, priority 2012, dated 2015).
“Also recorded” adds a separate entry of the source. Where a name gives a salt, the structure may show the parent alone.

Experiments:
Type in all cases: in vivo
[1] = test system: Eimeria maxima PY strains; assay: Anticoccidial effect on Eimeria maxima in chickens (Embodiment 6); conditions: 125 ppm in feed; for average weight gain / number of oocysts in feces: 7th day after infecting; for survival rate: chickens; for relative decrement rate of oocysts: vs infected non-drug control; for relative weight gain rate: vs non-infected non-drug control
Description: (§1) 1-day-old Lingnan yellow chickens, purchased from Poultry Research Unit, Bureau of Animal Husbandry, Guangdong Academy of Agricultural Sciences, bred under coccidium-free environment, and subjected to grouping and experiment after no coccidium oocyst is found in feces through microscopic examination when the chickens are 14 days old.
Eimeria maxima PY strains, having no resistance to various anticoccidial drugs. Breeding and amplifying in chickens before the experiment, collecting fresh oocysts, sporulating, and preserving at 4° C. for later use.
(§2) Weighing the 14-day-old experiment chickens one by one, rejecting emaciated chickens or overweighted chickens, selecting healthy chickens of which the individual body weight difference is within 20 g, and dividing to 4 groups with 30 chickens in each group. Groups 1 and 2 are respectively a non-drug-applied and non-coccidium-killed control group and a coccidium-infected and non-drug-applied control group, and Groups 3 and 4 are added with fluoroethyl thiamine hydrochloride or amprolium according to Table 10. Feeding with feed containing different drugs on the day of experiment grouping, enabling the chickens to freely take in feed, and feeding the chickens until the experiment ends.
(§3) Except the non-coccidium-infected and non-drug-applied control group, giving each experiment chicken in each experiment group with 3×10^5 eimeria maxima sporulated oocysts via the crop on the next day of the grouping day. During experiment, observing and recording the spirit, appetite, bloody feces situation, death count and the like of the chickens every day. On the 7th day after infecting, respectively weighing each group, calculating the relative weight gain rate, simultaneously collecting feces samples, and counting the number of oocysts per gram of feces.
(§4) The anticoccidial effect evaluation is the same with Embodiment 5.

[2] = test system: Eimeria acervulina HT; assay: Anticoccidial effect on Eimeria acervulina in chickens (Embodiment 5); conditions: 125 ppm in feed; for average weight gain / number of oocysts in feces: 7th day after infecting; for survival rate: chickens; for relative decrement rate of oocysts: vs infected non-drug control; for relative weight gain rate: vs non-infected non-drug control
Description: as §1
Eimeria acervulina HT, having no resistance to various anticoccidial drugs. Breeding and amplifying in chickens before the experiment, collecting fresh eggs, sporulating, and preserving at 4° C. for later use.
as §2, with “or overweighted chicks, selecting healthy” for “or overweighted chickens, selecting healthy”, “to Table 8. Feeding with” for “to Table 10. Feeding with”, “take in the feed, and” for “take in feed, and”
as §3, with “5×10^5” for “3×10^5”, “acervulina” for “maxima”
2.3.1 Weight gain: respectively weighing each chicken when the experiment starts and ends, and calculating the average weight gain and relative weight gain rate. The relative weight gain rate=(the average weight gain in the experiment groups/the average weight gain in the non-infected and non-drug-applied control group)×100%.
2.3.2 Survival rate: recording the number of dead chickens of each group, autopsying to determine the death cause, and calculating the survival rate. The survival rate=(the total number of the chickens in the experiment groups−the number of the chickens dying of coccidium infection during the experiment)/the total number of the chickens in the experiment groups×100%.
2.3.3 oocyst counting and relative decrement rate of oocysts: on the 7th day after coccidium infection, digesting the collected fresh feces with 10% sodium hypochlorite for 15 min, counting the number of the coccidium oocysts per gram of feces through a blood counting chamber, and calculating the relative decrement rate of the oocysts in the feces of each experiment group. The relative decrement rate of oocysts=(the number of the oocysts per gram of feces in the coccidium-killed and non-drug-applied control group−the number of the oocysts per gram of feces in the experiment groups)/the number of the oocysts per gram of feces in the coccidium-killed and non-drug-applied control group×100%.

[3] = test system: Eimeria tenella JM strains (amprolium-resistant); assay: Effect on amprolium-resistant coccidium strain in chickens (Embodiment 4); conditions: 125 ppm in feed; for number of oocysts in cecum / lesion value / the average weight gain: 7th day; for lesion value: cecum, scale 0-40; for survival rate / the average weight gain / bloody feces scoring: chickens; for bloody feces scoring: 5 days after infecting, score 0-4; for oocyst value: converted per Table 2; for relative weight gain rate: vs non-infected non-drug control
Protocol: as §1
Eimeria tenella JM strains, separated and purified from a chicken farm in Jiangmen, Guangdong, which are tested and identified to be amprolium-resistant coccidium strains. Breeding and amplifying in chickens before the experiment, collecting fresh eggs, sporulating, and preserving at 4° C. for later use.
as §2, with “and dividing into 4 groups” for “and dividing to 4 groups”, “4 are respectively added with” for “4 are added with”, “thiamine hydrochloride and amprolium. Feeding with” for “thiamine hydrochloride or amprolium according to Table 10. Feeding with”, “of experiment grouping according to Table 6, enabling the” for “of experiment grouping, enabling the”, “take in the feed, and” for “take in feed, and”
Except the non-coccidium-infected and non-drug-applied control group, giving each experiment chicken in each experiment group with 1.0×10^5 eimeria tenella sporulated oocysts via the crop on the next day of the grouping day. During experiment, observing and recording the spirit, appetite, bloody feces situation, death count and the like of the chickens every day. Performing bloody feces scoring on the chickens in each group 5 days after infecting. On the 7th day, respectively weighing all the chickens in each group, then autopsying them, observing cecum lesions and counting the oocysts in the cecum.
The evaluation standard is the same with Embodiment 2.

[4] = test system: Eimeria necatrix GD strains; assay: Anticoccidial effect on Eimeria necatrix in chickens (Embodiment 7); conditions: 125 ppm in feed; for average weight gain / number of oocysts in feces: 7th day after infecting; for survival rate: chickens; for relative decrement rate of oocysts: vs infected non-drug control; for relative weight gain rate: vs non-infected non-drug control
Description: as §1
Eimeria necatrix GD strains, having no resistance to various anticoccidial drugs. Breeding and amplifying in chickens before the experiment, collecting fresh oocysts, sporulating, and preserving at 4° C. for later use.
as §2, with “to Table 12. Feeding with” for “to Table 10. Feeding with”, “take in the feed, and” for “take in feed, and”
as §3, with “1×10^5” for “3×10^5”, “necatrix” for “maxima”
as §4

For `CCCc1ncc(C[n+]2ccccc2C)c(N)n1` [amprolium, Amprolium, reference compound], the average weight gain [1] was 167.4 g, the “number of oocysts in feces” value [1] was 8600 g⁻¹ and the survival rate [1] was 100%. The “relative decrement rate of oocysts” value [1] was 79.5%, the “relative weight gain rate” value [1] was 93.1% and the average weight gain [2] was 166.6 g. The “number of oocysts in feces” value [2] was 29800 g⁻¹, the survival rate [2] was 100% and the “relative decrement rate of oocysts” value [2] was 88.8%. The “relative weight gain rate” value [2] was 86.4%, the “anticoccidial index (ACI)” value [3] was 93.5 and the “effect on amprolium-resistant strain, in words” value [3] was “eimeria tenella JM strain has resistance to amprolium”. The “number of oocysts in cecum” value [3] was 2.878 ×10^6/chicken, the lesion value [3] was 28.4 and the survival rate [3] was 60%. The “the average weight gain” value [3] was 135.6 g/chicken, the bloody feces scoring [3] was 4 and the oocyst value [3] was 10. For the same compound, the “relative weight gain rate” value [3] was 71.9%, the average weight gain [4] was 159.9 g and the “number of oocysts in feces” value [4] was 3600 g⁻¹. The survival rate [4] was 100%, the “relative decrement rate of oocysts” value [4] was 73.3% and the “relative weight gain rate” value [4] was 86.2%.
For `CCc1ncc(C[n+]2csc(CCF)c2C)c(N)n1` [fluoroethyl thiamine hydrochloride, 3-[(4-amino-2-ethyl-5-pyrimidyl)-methylene]-5-(2-fluoroethyl)-4-methyl thiazole chloride hydrochloride], the average weight gain [1] was 176.3 g, the “number of oocysts in feces” value [1] was 3700 g⁻¹ and the survival rate [1] was 100%. The “inhibition of eimeria maxima, in words” value ([1]; hydrochloride) was “significant inhibition effect on eimeria maxima; also recorded: superior to amprolium in eimeria maxima inhibition”, the “relative decrement rate of oocysts” value [1] was 91.2% and the “relative weight gain rate” value [1] was 98.0%. The average weight gain [2] was 186.5 g, the “number of oocysts in feces” value [2] was 6500 g⁻¹ and the survival rate [2] was 100%. The “inhibition of eimeria acervulina, in words” value ([2]; hydrochloride) was “significant inhibition effect on the eimeria acervulina; also recorded: superior to amprolium in eimeria acervulina inhibition”, the “relative decrement rate of oocysts” value [2] was 97.6% and the “relative weight gain rate” value [2] was 96.7%. For the same compound, the “anticoccidial index (ACI)” value [3] was 196.8, the “effect on amprolium-resistant strain, in words” value [3] was “can protect the experiment chickens from being infected by the strains” and the “number of oocysts in cecum” value [3] was 0 ×10^6/chicken. The lesion value [3] was 0, the survival rate [3] was 100% and the “the average weight gain” value [3] was 182.7 g/chicken. The bloody feces scoring [3] was 0, the oocyst value [3] was 0 and the “relative weight gain rate” value [3] was 96.8%. For the same compound, the average weight gain [4] was 172.5 g, the “number of oocysts in feces” value [4] was 1900 g⁻¹ and the survival rate [4] was 100%. For the same compound, the “inhibition of eimeria necatrix, in words” value ([4]; hydrochloride) was “can effectively control infection of the eimeria necatrix; also recorded: superior to amprolium in eimeria necatrix inhibition”, the “relative decrement rate of oocysts” value [4] was 85.9% and the “relative weight gain rate” value [4] was 92.9%.
